Read-outs that look alike come from different tables or passages of the source.
What was measured:
[1] = set-up: method as in PMID 25175806; conditions: cited from earlier work
[2] = biological target: T1, AURKA/N-Myc complex (Homo sapiens, UniProt O14965); test: In situ Proximity Ligation Assay of AURKA/N-Myc in U2OS MYCN cells; type: cell-based
T1 construct: endogenous in cells; host or cells: U2OS FRT/TO Flp-In; AURKA endogenous, N-Myc-tFT from a stably integrated, doxycycline-inducible construct
T1 sequence (O14965 1-403): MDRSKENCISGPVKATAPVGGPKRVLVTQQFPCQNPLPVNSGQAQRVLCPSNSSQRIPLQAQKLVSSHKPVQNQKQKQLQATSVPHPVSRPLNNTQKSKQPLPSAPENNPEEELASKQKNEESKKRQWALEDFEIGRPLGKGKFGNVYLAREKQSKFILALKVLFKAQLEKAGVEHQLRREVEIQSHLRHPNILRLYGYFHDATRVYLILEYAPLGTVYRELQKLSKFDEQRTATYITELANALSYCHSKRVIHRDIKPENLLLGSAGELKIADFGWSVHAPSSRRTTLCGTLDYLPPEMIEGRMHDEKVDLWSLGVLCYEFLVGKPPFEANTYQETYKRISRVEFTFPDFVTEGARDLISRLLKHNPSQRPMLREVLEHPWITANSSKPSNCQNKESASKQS

[3] = test system: IMR-32 cells; test: Cell death (PARP-1 cleavage) and morphology of IMR-32 cultures; type: cell-based; conditions: IMR-32, 1 μM, 48 h
[4] = test system: AURKA; conditions: cited from earlier work
[5] = test system: IMR-32 cells; test: FACS analysis (PI) of cell cycle and sub-G1 DNA content; type: cell-based; conditions: IMR-32, 1 μM, 48 h; DMSO about 8%
[6] = biological target: T2, AURKA (Homo sapiens, UniProt O14965); test: SPR binding kinetics on immobilized AURKA; conditions: 25 °C, flow rate 150 μL/min
T2 construct: the catalytic domain of human AURKA (amino acids 122–430); His-tag followed by TEV protease cleavage site (N); made in house; host or cells: bacterial culture (LB, kanamycin, IPTG induction; pETM11)
T2 sequence (O14965 122-403 limits assumed): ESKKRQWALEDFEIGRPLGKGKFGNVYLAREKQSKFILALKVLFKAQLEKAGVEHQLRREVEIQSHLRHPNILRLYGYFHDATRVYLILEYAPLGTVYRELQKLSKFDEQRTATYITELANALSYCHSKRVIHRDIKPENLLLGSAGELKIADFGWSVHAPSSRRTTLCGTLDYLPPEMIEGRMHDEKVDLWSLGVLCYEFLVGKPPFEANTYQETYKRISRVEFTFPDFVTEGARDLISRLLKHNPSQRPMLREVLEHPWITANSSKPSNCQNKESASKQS

O=C(Nc1ccc(Nc2nccc(Nc3cc(C4CCCC4)[nH]n3)n2)cc1)Nc1cccc(C(F)(F)F)c1 [CD532]
half-life [1]: short half-life
oral bioavailability [1]: poor oral bioavailability

COc1cc2c(Nc3ccc(NC(=O)c4ccccc4)cc3)ncnc2cc1OCCCN1CCOCC1 [ZM447439]
AURKA/N-Myc interaction (isPLA spots per nucleus) ([2]; U2OS MYCN, 1 μM, MG-132 4 h before fixation): no difference between control and treated cells
cell morphology ([3]; bright-field microscopy): only induced spherical mitotic shapes

O=C(O)c1ccc(Nc2ncc3c(n2)-c2ccc(Cl)cc2C(c2c(F)cccc2F)=NC3)cc1 [MLN8054]
AURKA/N-Myc interaction (isPLA spots per nucleus) [2]: significantly reduced
cells with sub-G1 DNA content [5]: ~30%
cleaved PARP-1 (cell death induction) ([3]; Western blot): a fraction of cleaved PARP-1

O=C(c1cccc(Cl)c1F)N1CCN(Cc2cccc(Nc3nccs3)n2)CC1 [MK8754, MK8745]
Koff [6]: 12.0 ± 0.09 s^−1 × 10^−3
Kon [6]: 7.8 ± 0.1 M^−1s^−1 × 10^6
Kd ([6]; koff/kon): 1.55 ± 0.03 nM
IC50 [4]: 0.6 nM
